Data from ChEMBL document CHEMBL3124869 (J Med Chem, 2014).

Key:
physchem = details: octanol/water, pH 7.4
in vitro [1] = details: dog, MDCK
Description: Intrinsic absorptive permeability from apical to basolateral side of dog RRCK cells

in vitro [2] = details: human, liver microsomes
Description: Apparent total intrinsic clearance in human liver microsomes

[3] = target: T1, ALK tyrosine kinase receptor (Homo sapiens, UniProt Q9UM73, L1196M)
[4] = target: T1, ALK tyrosine kinase receptor; remark: listed apart in the source
[5] = AUC in rat at 5 mg/kg, po; assay type: ADME, organism-based; design: dose 5 mg/kg, route oral; details: plasma
[6] = Half life in rat at 1 mg/kg, iv; assay type: ADME, organism-based; design: dose 1 mg/kg, route intravenous; details: in vivo
[7] = Cmax in rat at 5 mg/kg, po; assay type: ADME, organism-based; design: dose 5 mg/kg, route oral; details: in vivo
Focal adhesion kinase 1 = Focal adhesion kinase 1 (Homo sapiens, UniProt Q05397); experiment: Inhibition of PTK2 (unknown origin) using Km levels of ATP
[8] = Antitumor activity against human NCI-H3122 cells harboring ALK L1196M mutant xenografted in athymic nu/nu mouse assessed as tumor growth regression at 50 mg/kg, po bid administered via gavage starting on day 15 post tumor implantation measured on day 27; assay type: functional
[9] = target: BDNF/NT-3 growth factors receptor (Homo sapiens, UniProt Q16620); experiment: Inhibition of NTRK2 (unknown origin) using Km levels of ATP
[10] = Oral bioavailability in rat at 5 mg/kg; assay type: ADME, organism-based; details: in vivo
[11] = Volume of distribution at steady state in rat at 1 mg/kg, iv; assay type: ADME, organism-based; design: dose 1 mg/kg, route intravenous; details: in vivo, read-out: Vdss
[12] = target: Tyrosine-protein kinase Fer (Homo sapiens, UniProt P16591); experiment: Inhibition of FER (unknown origin) using Km levels of ATP
[13] = target: Proto-oncogene tyrosine-protein kinase ROS (Homo sapiens, UniProt P08922); experiment: Inhibition of ROS1 (unknown origin) by Pfizer mobility shift assay
[14] = Antitumor activity against human NCI-H3122 cells harboring ALK L1196M mutant xenografted in athymic nu/nu mouse assessed as tumor total growth inhibition at 30 mg/kg, po qd administered via gavage starting on day 15 post tumor implantation; assay type: functional; details: NCI-H3122, 360 h, read-out: TGI
[15] = AUC in rat at 1 mg/kg, iv; assay type: ADME, organism-based; design: dose 1 mg/kg, route intravenous; details: plasma
[16] = Plasma clearance in rat at 1 mg/kg, iv; assay type: ADME, organism-based; design: dose 1 mg/kg, route intravenous
Mus musculus = experiment: Toxicity in po dosed athymic nu/nu mouse xenografted with human NCI-H3122 cells harboring ALK L1196M mutant assessed as body weight reduction administered via gavage starting on day 15 post tumor implantation; assay type: organism-based; details: in vivo
[17] = target: High affinity nerve growth factor receptor (Homo sapiens, UniProt P04629); experiment: Inhibition of NTRK1 (unknown origin) using Km levels of ATP
[18] = Antitumor activity against human NCI-H3122 cells harboring ALK L1196M mutant xenografted in athymic nu/nu mouse assessed as tumor total growth inhibition at 15 mg/kg, po bid administered via gavage starting on day 15 post tumor implantation; assay type: functional; details: NCI-H3122, 360 h, read-out: TGI
[19] = target: NT-3 growth factor receptor (Homo sapiens, UniProt Q16288); experiment: Inhibition of NTRK3 (unknown origin) using Km levels of ATP
[20] = target: Leukocyte tyrosine kinase receptor (Homo sapiens, UniProt P29376); experiment: Inhibition of LTK (unknown origin) using Km levels of ATP
[21] = target: Tyrosine-protein kinase Fes/Fps (Homo sapiens, UniProt P07332); experiment: Inhibition of FES (unknown origin) using Km levels of ATP
[22] = Tmax in rat at 5 mg/kg, po; assay type: ADME, organism-based; design: dose 5 mg/kg, route oral; details: in vivo
Activated CDC42 kinase 1 = Activated CDC42 kinase 1 (Homo sapiens, UniProt Q07912)

C[C@@H](Oc1cc(-c2cn(C)nc2C#N)cnc1N)c1cc(F)ccc1-n1nccn1 showed a logD (physchem) of 3.3, a Papp A→B (in vitro [1]) of 18 ×10⁻⁶ cm/s and a CLint scaled (in vitro [2]) of 22 mL/min/kg.
With Cc1nc(C(C)(C)O)ccc1-c1cnc(N)c(O[C@H](C)c2cc(F)ccc2-n2nccn2)c1 the logD (physchem) was 3.6, the Papp A→B (in vitro [1]) was 14 ×10⁻⁶ cm/s and the CLint scaled (in vitro [2]) was 49 mL/min/kg.
In the case of C[C@@H](Oc1cc(-c2ccnn2C)cnc1N)c1cc(F)ccc1-n1nccn1, the logD (physchem) is reported as 3.3, the Papp A→B (in vitro [1]) is reported as 22 ×10⁻⁶ cm/s and the CLint scaled (in vitro [2]) is reported as 17 mL/min/kg.
With Cc1n[nH]cc1-c1cnc(N)c(O[C@H](C)c2cc(F)ccc2F)c1 the logD (physchem) was 3.4, the Papp A→B (in vitro [1]) was 18 ×10⁻⁶ cm/s and the CLint scaled (in vitro [2]) was 31 mL/min/kg.
Cc1nc([C@@](C)(O)CO)sc1-c1cnc(N)c(O[C@H](C)c2cc(F)ccc2-n2nccn2)c1 gave a logD (physchem) of 2.9, a Papp A→B (in vitro [1]) of 17 ×10⁻⁶ cm/s and a CLint scaled (in vitro [2]) of 15 mL/min/kg.
Work on COc1ncccc1-c1cnc(N)c(O[C@H](C)c2cc(F)ccc2-n2nccn2)c1 yielded a logD (physchem) of 3.7, a Papp A→B (in vitro [1]) of 14 ×10⁻⁶ cm/s and a CLint scaled (in vitro [2]) of 38 mL/min/kg.
Work on C[C@@H](Oc1cc(-c2cnnn2C)cnc1N)c1cc(F)ccc1-n1nccn1 yielded a logD (physchem) of 2.4, a Papp A→B (in vitro [1]) of 24 ×10⁻⁶ cm/s and a CLint scaled (in vitro [2]) of 3 mL/min/kg.
Compound C[C@@H](Oc1cc(-c2cnn(C3CCNCC3)c2)cnc1N)c1cc(F)ccc1Cl has a logD (physchem) of 1.7, a Papp A→B (in vitro [1]) of 2.3 ×10⁻⁶ cm/s and a CLint scaled (in vitro [2]) of 27 mL/min/kg. It also gave a Ki [3] of 5 nM and an IC50 [4] of 387 nM.
Compound Cc1nc(C2(O)CCS(=O)(=O)C2)sc1-c1cnc(N)c(O[C@H](C)c2cc(F)ccc2-n2nccn2)c1 (stereo not given in full) has a logD (physchem) of 3.2, a Papp A→B (in vitro [1]) of 14 ×10⁻⁶ cm/s and a CLint scaled (in vitro [2]) of 13 mL/min/kg.
Cc1nc([C@](C)(O)CO)sc1-c1cnc(N)c(O[C@H](C)c2cc(F)ccc2-n2nccn2)c1 showed an AUC [5] of 2.87 µM·h, a half-life [6] of 0.9 h and a Cmax [7] of 568 nM. For the same compound, the IC50 (Focal adhesion kinase 1) was 16 nM, the Activity [8] was 56% and the IC50 [9] was 4 nM. For the same compound, the logD (physchem) was 2.9, the bioavailability [10] was 86% and the Vd [11] was 2 L/kg. The IC50 [12] was 2 nM, the Ki [13] was 0.02 nM and the inhibition in vivo at 30 mg/kg [14] was 100%. It also gave a Papp A→B (in vitro [1]) of 19 ×10⁻⁶ cm/s, an AUC [15] of 0.667 µM·h and a clearance [16] of 54 mL/min/kg. The Activity (Mus musculus) was “Non-toxic”, the CLint scaled (in vitro [2]) was 15 mL/min/kg and the IC50 [17] was 17 nM. It also gave an inhibition in vivo at 15 mg/kg [18] of 100%, an IC50 [19] of 18 nM and an IC50 [20] of 2 nM. The IC50 [21] was 5 nM, the Tmax [22] was 1.3 h and the IC50 (Activated CDC42 kinase 1) was 15 nM.
Cc1n[nH]cc1-c1cnc(N)c(O[C@@H](C)c2cc(F)ccc2C#N)c1 gave a logD (physchem) of 2.7, a Papp A→B (in vitro [1]) of 20 ×10⁻⁶ cm/s and a CLint scaled (in vitro [2]) of 37 mL/min/kg.
Work on COc1ccc(F)cc1[C@@H](C)Oc1cc(-c2c[nH]nc2C)cnc1N yielded a logD (physchem) of 3.5, a Papp A→B (in vitro [1]) of 14 ×10⁻⁶ cm/s and a CLint scaled (in vitro [2]) of 65 mL/min/kg.
For COc1ncncc1-c1cnc(N)c(O[C@H](C)c2cc(F)ccc2-n2nccn2)c1, the logD (physchem) was 3.1, the Papp A→B (in vitro [1]) was 22 ×10⁻⁶ cm/s and the CLint scaled (in vitro [2]) was 49 mL/min/kg.
With Cc1nn(C)cc1-c1cnc(N)c(O[C@H](C)c2cc(F)ccc2-n2nccn2)c1 the logD (physchem) was 3.4, the Papp A→B (in vitro [1]) was 27 ×10⁻⁶ cm/s and the CLint scaled (in vitro [2]) was 68 mL/min/kg.
Work on Cc1n[nH]cc1-c1cnc(N)c(O[C@H](C)c2cc(F)ccc2-n2nccn2)c1 yielded a logD (physchem) of 3.3, a Papp A→B (in vitro [1]) of 21 ×10⁻⁶ cm/s and a CLint scaled (in vitro [2]) of 46 mL/min/kg.
With Cc1nccn1-c1cnc(N)c(O[C@H](C)c2cc(F)ccc2-n2nccn2)c1 the logD (physchem) was 2.4, the Papp A→B (in vitro [1]) was 21 ×10⁻⁶ cm/s and the CLint scaled (in vitro [2]) was 80 mL/min/kg.
Compound Cc1nc(C2(O)CN(C)C2)sc1-c1cnc(N)c(O[C@H](C)c2cc(F)ccc2-n2nccn2)c1 has a logD (physchem) of 2.6, a Papp A→B (in vitro [1]) of 3.4 ×10⁻⁶ cm/s and a CLint scaled (in vitro [2]) of 55 mL/min/kg.
With Cc1nc(C(C)(C)O)sc1-c1cnc(N)c(O[C@H](C)c2cc(F)ccc2-n2nccn2)c1 the logD (physchem) was 3.6, the Papp A→B (in vitro [1]) was 18 ×10⁻⁶ cm/s and the CLint scaled (in vitro [2]) was 23 mL/min/kg.
For Cc1nc(C2(O)CCOC2)sc1-c1cnc(N)c(O[C@H](C)c2cc(F)ccc2-n2nccn2)c1 (single isomer, unassigned), the logD (physchem) was 3.3, the Papp A→B (in vitro [1]) was 21 ×10⁻⁶ cm/s and the CLint scaled (in vitro [2]) was 138 mL/min/kg.
